These results are taken from ChEMBL document CHEMBL2029243, “Potent and selective pyrazolo[1,5-a]pyrimidine based inhibitors of B-Raf(V600E) kinase with favorable physicochemical and pharmacokinetic properties” (Bioorg Med Chem Lett, 2012).

SMILES strings stand for the structures. pIC50: −log10 of the molar value. In brackets after ≈: the same amount, converted by molar mass.

System in the first data set: not listed separately
As to the kind of experiment: AUC in mouse at 30 mg/kg, po administered with 40/10/50 volume of PEG400/EtOH/H2O solution. The class given is ADME, organism-based. Particulars: plasma. The arrangement: dose 30 mg/kg, route oral.
What is called AUC is the area under the concentration-time curve, a measure of exposure. A low value points to less exposure. `CCCS(=O)(=O)Nc1ccc(F)c(C(=O)Nc2cnc3[nH]nc(OC)c3c2)c1F` displayed an exposure (AUC) of 426 µM·h.

`CCCS(=O)(=O)Nc1ccc(F)c(C(=O)Nc2cnc3cc(OC)nn3c2)c1F`: the AUC stood at 733 µM·h.

System in a further data set: not listed separately
Nature of the data set: Clearance in mouse at […], iv. The format is ADME, organism-based. Also on record: dose 2.5 mg/kg, route intravenous. Conditions: in vivo.
The clearance is the volume of plasma or blood freed of the substance per unit of time. As to `CCCS(=O)(=O)Nc1ccc(F)c(C(=O)Nc2cnc3[nH]nc(OC)c3c2)c1F`, the clearance stood at 0.078 L/h/kg.

As to `CCCS(=O)(=O)Nc1ccc(F)c(C(=O)Nc2cnc3cc(OC)nn3c2)c1F`, the clearance worked out at 0.06 L/h/kg.

System in another data set: not listed separately
Nature of the data set: Oral bioavailability in mouse at 30 mg/kg. The class given is ADME, organism-based. Conditions: in vivo.
The term bioavailability denotes the share of a dose that reaches the circulation, judged against a reference dose that is usually intravenous. Higher therefore signals much systemic uptake. On to `CCCS(=O)(=O)Nc1ccc(F)c(C(=O)Nc2cnc3cc(OC)nn3c2)c1F`, for which the bioavailability came to 98%.

System in a further data set: not listed separately
As to the kind of experiment: Volume of distribution in mouse at […], iv and 30 mg/kg, po. The class given is ADME, organism-based. Particulars: in vivo.
On to `CCCS(=O)(=O)Nc1ccc(F)c(C(=O)Nc2cnc3[nH]nc(OC)c3c2)c1F`, for which the Vd worked out at 0.11 L/kg.

Turning to `CCCS(=O)(=O)Nc1ccc(F)c(C(=O)Nc2cnc3cc(OC)nn3c2)c1F`, the Vd was found to be 0.16 L/kg.

System in another data set: not listed separately
Nature of the data set: Aqueous solubility of the compound at pH 1.2. Conditions: buffer. The class given is physicochemical.
For orientation: solubility means the concentration that dissolves in the medium under given conditions. Low values mean little dissolved substance, high ones much dissolved substance. `CCCS(=O)(=O)Nc1ccc(F)c(C(=O)Nc2cnc3[nH]nc(OC)c3c2)c1F` registered a solubility of 0.003 mg/mL (≈ 7.05 µM).

The molecule `CCCS(=O)(=O)Nc1ccc(F)c(C(=O)Nc2cnc3cc(OC)nn3c2)c1F` showed a solubility of 0.018 mg/mL (≈ 42.3 µM).

System in the next data set: not listed separately
As to the kind of experiment: AUC in mouse at 30 mg/kg, po administered with 1% methylcellulose/0.5% Tween 80 in water. The format is ADME, organism-based. Also on record: dose 30 mg/kg, route oral. Particulars: in vivo.
For the molecule `CCCS(=O)(=O)Nc1ccc(F)c(C(=O)Nc2cnc3[nH]nc(OC)c3c2)c1F`, the AUC was found to be 105 µM·h.

In turn, `CCCS(=O)(=O)Nc1ccc(F)c(C(=O)Nc2cnc3cc(OC)nn3c2)c1F` displayed an AUC of 844 µM·h.

A further data set deals with T1, Serine/threonine-protein kinase B-raf (Homo sapiens, UniProt P15056, V600E).
T1 sequence (P15056 2-766 V600E limits assumed): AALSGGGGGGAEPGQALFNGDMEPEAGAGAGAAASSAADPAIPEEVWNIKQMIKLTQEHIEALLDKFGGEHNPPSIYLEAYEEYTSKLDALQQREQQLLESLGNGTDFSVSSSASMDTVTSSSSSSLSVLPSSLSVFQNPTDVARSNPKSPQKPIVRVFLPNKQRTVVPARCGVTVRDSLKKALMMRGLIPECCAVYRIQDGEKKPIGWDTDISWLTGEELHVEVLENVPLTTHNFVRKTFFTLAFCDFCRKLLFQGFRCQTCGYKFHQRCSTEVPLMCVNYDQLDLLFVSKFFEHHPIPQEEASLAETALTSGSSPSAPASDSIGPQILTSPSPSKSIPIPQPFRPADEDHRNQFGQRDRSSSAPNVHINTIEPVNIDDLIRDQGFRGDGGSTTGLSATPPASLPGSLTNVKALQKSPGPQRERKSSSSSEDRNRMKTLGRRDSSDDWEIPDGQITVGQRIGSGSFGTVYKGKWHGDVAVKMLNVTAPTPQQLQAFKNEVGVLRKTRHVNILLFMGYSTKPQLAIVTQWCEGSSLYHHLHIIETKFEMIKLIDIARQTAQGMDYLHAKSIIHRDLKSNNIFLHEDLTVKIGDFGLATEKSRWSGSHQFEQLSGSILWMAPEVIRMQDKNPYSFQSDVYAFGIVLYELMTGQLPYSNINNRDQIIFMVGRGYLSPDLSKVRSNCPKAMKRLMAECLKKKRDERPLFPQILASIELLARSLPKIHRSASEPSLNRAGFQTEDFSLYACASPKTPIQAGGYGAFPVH
Test: not given
Conditions: not given
One may read the pIC50 as −log10 of the IC50, conventionally taken in molar units. Lower therefore signals a high IC50. `CCCS(=O)(=O)Nc1ccc(F)c(C(=O)Nc2cnc3[nH]nc(OC)c3c2)c1F` gave a pIC50 of 8.30.

The molecule `CCCS(=O)(=O)Nc1ccc(F)c(C(=O)Nc2cnc3ccccc3c2)c1F` had a pIC50 of 6.33.

`CCCS(=O)(=O)Nc1ccc(F)c(C(=O)Nc2cnc3occc3c2)c1F`: the pIC50 is less than 5.00.

The molecule `CCCS(=O)(=O)Nc1ccc(F)c(C(=O)Nc2cnc3nccn3c2)c1F` had a pIC50 of less than 5.00.

Consider `CCCS(=O)(=O)Nc1ccc(F)c(C(=O)Nc2cnc3cc[nH]c3c2)c1F`, for which the pIC50 is 6.39.

Regarding `CCCS(=O)(=O)Nc1ccc(F)c(C(=O)Nc2cnc3ccnn3c2)c1F`, the pIC50 is 6.61.

For `CCCS(=O)(=O)Nc1ccc(F)c(C(=O)Nc2cnc3cc(C)nn3c2)c1F`, the negative logarithm of the IC50 (pIC50) is 6.88.

As for `CCCS(=O)(=O)Nc1ccc(F)c(C(=O)Nc2cnc3cc(CC)nn3c2)c1F`, the pIC50 is 6.98.

`CCCS(=O)(=O)Nc1ccc(F)c(C(=O)Nc2cnc3cc(C4CC4)nn3c2)c1F` had a pIC50 of 6.91.

`CCCS(=O)(=O)Nc1ccc(F)c(C(=O)Nc2cnc3cc(C4CCCC4)nn3c2)c1F` gave a pIC50 of 6.89.

Consider `CCCS(=O)(=O)Nc1ccc(F)c(C(=O)Nc2cnc3cc(C(F)(F)F)nn3c2)c1F`, for which the negative logarithm of the IC50 (pIC50) is 6.90.

`CCCS(=O)(=O)Nc1ccc(F)c(C(=O)Nc2cnc3cc(NC)nn3c2)c1F` showed a pIC50 of 6.89.

Molecule `CCCS(=O)(=O)Nc1ccc(F)c(C(=O)Nc2cnc3cc(NC(C)C)nn3c2)c1F` gave a pIC50 of 6.72.

In turn, `CCCS(=O)(=O)Nc1ccc(F)c(C(=O)Nc2cnc3cc(N4CCOCC4)nn3c2)c1F` gave a negative logarithm of the IC50 (pIC50) of 6.76.

For the molecule `CCCS(=O)(=O)Nc1ccc(F)c(C(=O)Nc2cnc3cc(OC)nn3c2)c1F`, the pIC50 was 7.37.

Molecule `CCCS(=O)(=O)Nc1ccc(F)c(C(=O)Nc2cnc3cc(OCC)nn3c2)c1F` gave a pIC50 of 7.08.

In turn, `CCCS(=O)(=O)Nc1ccc(F)c(C(=O)Nc2cnc3cc(OC(C)C)nn3c2)c1F` had a pIC50 of 6.83.

Regarding `CCCS(=O)(=O)Nc1ccc(F)c(C(=O)Nc2cnc3cc(OCCOC)nn3c2)c1F`, the negative logarithm of the IC50 (pIC50) is 7.17.

Turning to `CCCS(=O)(=O)Nc1ccc(F)c(C(=O)Nc2cnc3cc(-c4cccc(F)c4)nn3c2)c1F`, the pIC50 was 7.72.

In turn, `CCCS(=O)(=O)Nc1ccc(F)c(C(=O)Nc2cnc3cc(-c4ccc(F)cc4)nn3c2)c1F` gave a pIC50 of 7.96.

Regarding `CCCS(=O)(=O)Nc1ccc(F)c(C(=O)Nc2cnc3cc(-c4cccnc4)nn3c2)c1F`, the pIC50 was 7.89.

As for `CCCS(=O)(=O)Nc1ccc(F)c(C(=O)Nc2cnc3cc(-c4cnn(C)c4)nn3c2)c1F`, the pIC50 was 7.89.

Another data set deals with T1, Serine/threonine-protein kinase B-raf.
Test: not given
Conditions: not given
This is another data set of the same source.
Molecule `CCCS(=O)(=O)Nc1ccc(F)c(C(=O)Nc2cnc3ccccc3c2)c1F` showed a pIC50 of 5.86.

Consider `CCCS(=O)(=O)Nc1ccc(F)c(C(=O)Nc2cnc3cc[nH]c3c2)c1F`, for which the pIC50 is 5.82.

In turn, `CCCS(=O)(=O)Nc1ccc(F)c(C(=O)Nc2cnc3ccnn3c2)c1F` showed a negative-log IC50 (pIC50) of 6.31.

As to `CCCS(=O)(=O)Nc1ccc(F)c(C(=O)Nc2cnc3cc(C)nn3c2)c1F`, the negative-log IC50 (pIC50) is 6.61.

On to `CCCS(=O)(=O)Nc1ccc(F)c(C(=O)Nc2cnc3cc(CC)nn3c2)c1F`, for which the pIC50 was 6.64.

Turning to `CCCS(=O)(=O)Nc1ccc(F)c(C(=O)Nc2cnc3cc(C4CC4)nn3c2)c1F`, the pIC50 is 6.52.

`CCCS(=O)(=O)Nc1ccc(F)c(C(=O)Nc2cnc3cc(C4CCCC4)nn3c2)c1F` had a pIC50 of 6.35.

Turning to `CCCS(=O)(=O)Nc1ccc(F)c(C(=O)Nc2cnc3cc(C(F)(F)F)nn3c2)c1F`, the pIC50 is 6.43.

As for `CCCS(=O)(=O)Nc1ccc(F)c(C(=O)Nc2cnc3cc(NC)nn3c2)c1F`, the pIC50 is 6.42.

Take `CCCS(=O)(=O)Nc1ccc(F)c(C(=O)Nc2cnc3cc(NC(C)C)nn3c2)c1F`: the pIC50 was 6.40.

In turn, `CCCS(=O)(=O)Nc1ccc(F)c(C(=O)Nc2cnc3cc(N4CCCC4)nn3c2)c1F` had a pIC50 of 6.18.

On to `CCCS(=O)(=O)Nc1ccc(F)c(C(=O)Nc2cnc3cc(N4CCOCC4)nn3c2)c1F`, for which the pIC50 is 6.50.

Molecule `CCCS(=O)(=O)Nc1ccc(F)c(C(=O)Nc2cnc3cc(OC)nn3c2)c1F` had a pIC50 of 7.17.

For the molecule `CCCS(=O)(=O)Nc1ccc(F)c(C(=O)Nc2cnc3cc(OCC)nn3c2)c1F`, the pIC50 is 6.69.

The molecule `CCCS(=O)(=O)Nc1ccc(F)c(C(=O)Nc2cnc3cc(OC(C)C)nn3c2)c1F` had a pIC50 of 6.35.

`CCCS(=O)(=O)Nc1ccc(F)c(C(=O)Nc2cnc3cc(OCCOC)nn3c2)c1F`: the pIC50 was 6.96.

In the case of `CCCS(=O)(=O)Nc1ccc(F)c(C(=O)Nc2cnc3cc(-c4cccc(F)c4)nn3c2)c1F`, the pIC50 was 7.22.

The molecule `CCCS(=O)(=O)Nc1ccc(F)c(C(=O)Nc2cnc3cc(-c4ccc(F)cc4)nn3c2)c1F` showed a pIC50 of 7.27.

Regarding `CCCS(=O)(=O)Nc1ccc(F)c(C(=O)Nc2cnc3cc(-c4cccnc4)nn3c2)c1F`, the pIC50 was 7.57.

Molecule `CCCS(=O)(=O)Nc1ccc(F)c(C(=O)Nc2cnc3cc(-c4cnn(C)c4)nn3c2)c1F` showed a pIC50 of 7.32.

System in the next data set: not listed separately
Nature of the data set: in vitro. Conditions: human, Caco-2.
Description: Permeability across human Caco2 cells
Usually Papp stands for a coefficient for how fast a substance crosses the barrier. Read a low Papp as slow passage. Take `CCCS(=O)(=O)Nc1ccc(F)c(C(=O)Nc2cnc3cc(OC)nn3c2)c1F`: the Papp was determined as 20 nm/s.

System in a further data set: not listed separately
Nature of the data set: physchem. Particulars: buffer, pH 6.5.
Description: Aqueous solubility of the compound at pH 6.5
`CCCS(=O)(=O)Nc1ccc(F)c(C(=O)Nc2cnc3cc(OC)nn3c2)c1F`: the solubility came out at 0.021 mg/mL (≈ 49.4 µM).

System in the next data set: not listed separately
Nature of the data set: physchem. Conditions: buffer, pH 7.4.
Description: Aqueous solubility of the compound at pH 7.4
`CCCS(=O)(=O)Nc1ccc(F)c(C(=O)Nc2cnc3cc(OC)nn3c2)c1F` came in with a solubility of 0.032 mg/mL (≈ 75.2 µM).
